Assay results from US20250092065A1, “2-(INDAZOL-5-YL)-6-(PIPERIDIN-4-YL)-1,7-NAPHTHYRIDINE DERIVATIVES AND RELATED COMPOUNDS AS MODULATORS FOR SPLICING NUCLEIC ACIDS AND FOR THE TREATMENT OF PROLIFERATIVE DISEASES” (REMIX THERAPEUTICS INC., priority 2022, published 2025).
Like-named read-outs stand apart in the source and are kept apart here.

Assays:
K562 cells = test: Cell Titer Glo 2.0 cell viability (toxicity) assay, K562; settings: 500 cells/well, 72 hours
MYB mRNA = test: RT-qPCR splicing assay, MYB mRNA canonical (CJ) and alternative (AJ) junction; format: cell-based, human; settings: Homo sapiens; for AC50: MYB alternative junction mRNA, read-out: MYB AJ (increase in AJ mRNA, AC50)
Outline: (§1)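 Canonical and alternative-exon junction isoforms were quantified by RT-qPCR in cell lysates, with ΔCt against a housekeeper (GAPDH/GUSB/PPIA), then ΔΔCt vs DMSO, converted to 2^(−ΔΔCt) and percent response. K562 or A673 cells were exposed for 24 h to 11 concentrations (3-fold, top final 10 uM).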

Target C = test: HiBiT protein abundance assay, Target C (K562 HiBiT knock-in); format: cell-based, human; settings: HiBiT knock-in K562 cells, 24 hours, top dose 10 μM
Outline: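 K562 HiBiT knock-in cells (10000/well) were treated 24 h at 37° C with a 10-point 3-fold dilution series (top 10 μM final, ≤0.25% DMSO). HiBiT luminescence was read after lytic LgBiT detection. Percent response used unmodified K562 and DMSO-treated knock-in controls, and IC50 came from a four-parameter fit at 50% of untreated.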

SMN2 mRNA = test: RT-qPCR splicing assay, SMN2 mRNA; format: cell-based, human; settings: Homo sapiens, canonical junction qPCR panel, Table 4; read-out: SMN2 IC50 (decrease in CJ mRNA levels)
Outline: as §1

MYB = test: HiBiT protein abundance assay, MYB (K562 HiBiT knock-in); format: cell-based, human; settings: HiBiT knock-in K562 cells, 24 hours, top dose 10 μM
Outline: (§2)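 Tagged-protein levels were measured as HiBiT/LgBiT luminescence in lysed K562 knock-in cells exposed to serially diluted compound (up to 10 μM final) for 24 hours. A four-parameter logistic regression of control-normalized signal yielded the IC50.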

HTT = test: HiBiT protein abundance assay, HTT (K562 HiBiT knock-in); format: cell-based, human; settings: HiBiT knock-in K562 cells, 24 hours, top dose 10 μM
Outline: as §2

[1] = MYB canonical junction mRNA, RT-qPCR, read-out: MYB CJ (decrease in CJ mRNA levels, IC50)
[2] = canonical junction qPCR panel, Table 4, read-out: MYB IC50 (decrease in CJ mRNA levels)

IC50 (MYB mRNA; [1])	IC50 (MYB mRNA; [2])	IC50 (Target C)	IC50 (SMN2 mRNA)	IC50 (MYB)	IC50 (HTT)	SMILES	Effect of Exemplary Compounds on Cell Viability, K562 (K562 cells)	AC50 (MYB mRNA; RT-qPCR)
100 to 1000 nM	100 to 1000 nM	< 100 nM	< 100 nM	100 to 1000 nM	< 100 nM	Cc1nc2c(C)c(O)c(-c3ccc4nc(N5CC[C@H](NC6(C)CC6)C5)ccc4n3)cc2o1 (single isomer, unassigned) [Compound 311]	C (C represents 1000-9999 nM)	100 to 1000 nM
< 100 nM	< 100 nM	< 100 nM	< 100 nM	< 100 nM	< 100 nM	Cc1nc2c(C)c(O)c(-c3ccc4nc(N5CC[C@@H](NC(C)C)C5)ccc4n3)cc2o1 (single isomer, unassigned) [Compound 313]	A (A represents <100 nM)	< 100 nM
< 100 nM	< 100 nM	< 100 nM	< 100 nM	< 100 nM	< 100 nM	Cc1nc2c(C)c(O)c(-c3ccc4nc(N5CC[C@H](NC(C)C)C5)ccc4n3)cc2o1 (single isomer, unassigned) [Compound 314]	A (A represents <100 nM)	< 100 nM
< 100 nM	< 100 nM	< 100 nM	< 100 nM	< 100 nM	< 100 nM	Cn1cc2cc(-c3ccc4nc(N5CC[C@@H](NC6CCC6)C5)ccc4n3)c(O)c(F)c2n1 (single isomer, unassigned) [Compound 316]	A (A represents <100 nM)	< 100 nM
< 100 nM	< 100 nM	< 100 nM	< 100 nM	< 100 nM	< 100 nM	Cn1cc2cc(-c3ccc4nc(N5CC[C@H](NC6CCC6)C5)ccc4n3)c(O)c(F)c2n1 (single isomer, unassigned) [Compound 317]	A (A represents <100 nM)	< 100 nM
< 100 nM	< 100 nM	< 100 nM	< 100 nM	< 100 nM	< 100 nM	Cc1c(O)c(-c2ccc3nc(N4CC[C@@H](NC(C)C)C4)ccc3n2)cc2cn(C)nc12 (single isomer, unassigned) [Compound 319]	A (A represents <100 nM)	< 100 nM
< 100 nM	< 100 nM	< 100 nM	< 100 nM	< 100 nM	< 100 nM	Cc1c(O)c(-c2ccc3nc(N4CC[C@H](NCC5CC5)C4)ccc3n2)cc2cn(C)nc12 (single isomer, unassigned) [Compound 321]	B (B represents 100-1000 nM)	< 100 nM
< 100 nM	< 100 nM	< 100 nM	< 100 nM	< 100 nM	< 100 nM	Cc1c(O)c(-c2ccc3nc(N4CC[C@@H](NCC5CC5)C4)ccc3n2)cc2cn(C)nc12 (single isomer, unassigned) [Compound 322]	B (B represents 100-1000 nM)	< 100 nM
< 100 nM	< 100 nM	< 100 nM	< 100 nM	< 100 nM	< 100 nM	Cc1nc2c(F)c(O)c(-c3ccc4nc(N5CC[C@@H](NCC6CC6)C5)ccc4n3)cc2o1 (single isomer, unassigned) [Compound 323]	A (A represents <100 nM)	< 100 nM
< 100 nM	< 100 nM	< 100 nM	< 100 nM	< 100 nM	< 100 nM	Cc1nc2c(F)c(O)c(-c3ccc4nc(N5CC[C@H](NCC6CC6)C5)ccc4n3)cc2o1 (single isomer, unassigned) [Compound 324]	A (A represents <100 nM)	< 100 nM
< 100 nM	< 100 nM	< 100 nM	< 100 nM	< 100 nM	< 100 nM	Cc1nc2c(F)c(O)c(-c3ccc4nc(N5CC[C@@H](NC(C)C)C5)ccc4n3)cc2o1 (single isomer, unassigned) [Compound 329]	A (A represents <100 nM)	< 100 nM
< 100 nM	< 100 nM	< 100 nM	< 100 nM	< 100 nM	< 100 nM	Cc1nc2c(F)c(O)c(-c3ccc4nc(N5CC[C@H](NC(C)C)C5)ccc4n3)cc2o1 (single isomer, unassigned) [Compound 330]	A (A represents <100 nM)	< 100 nM
< 100 nM	< 100 nM	< 100 nM	< 100 nM	< 100 nM	< 100 nM	Cn1cc2cc(-c3ccc4nc(N5CC[C@H](N[C@H]6C[C@H](F)C6)C5)ccc4n3)c(O)c(F)c2n1 (single isomer, unassigned) [Compound 347]	A (A represents <100 nM)	< 100 nM
< 100 nM	< 100 nM	100 to 1000 nM	< 100 nM	< 100 nM	< 100 nM	Cc1nc2cc(O)c(-c3ccc4nc(N5CC[C@@H](N[C@H]6C[C@H](F)C6)C5)ccc4n3)cc2o1 (single isomer, unassigned) [Compound 348]	C (C represents 1000-9999 nM)	< 100 nM
< 100 nM	< 100 nM	< 100 nM	< 100 nM	< 100 nM	< 100 nM	Cn1cc2cc(-c3ccc4nc(N5CC[C@@H](N[C@H]6C[C@H](F)C6)C5)ccc4n3)c(O)c(F)c2n1 (single isomer, unassigned) [Compound 349]	B (B represents 100-1000 nM)	< 100 nM
< 100 nM	< 100 nM	< 100 nM	< 100 nM	< 100 nM	< 100 nM	Cc1nc2c(C)c(O)c(-c3ccc4nc(N5CC[C@H](N[C@H]6C[C@H](F)C6)C5)ccc4n3)cc2o1 (single isomer, unassigned) [Compound 351]	B (B represents 100-1000 nM)	< 100 nM
< 100 nM	< 100 nM	< 100 nM	< 100 nM	< 100 nM	< 100 nM	Cc1nc2c(C)c(O)c(-c3ccc4nc(N5CC[C@@H](N[C@H]6C[C@H](F)C6)C5)ccc4n3)cc2o1 (single isomer, unassigned) [Compound 352]	B (B represents 100-1000 nM)	< 100 nM
< 100 nM	< 100 nM	< 100 nM	< 100 nM	< 100 nM	< 100 nM	Cc1nc2c(F)c(O)c(-c3ccc4nc(N5CC[C@@H](NC6(C)CC6)C5)ccc4n3)cc2o1 (stereo in doubt) [Compound 326, 4-fluoro-2-methyl-6-{6-[(3 S)-3-[(1-methylcyclopropyl)amino]pyrrolidin-1-yl]-1,5-naphthyridin-2-yl}-1,3-benzoxazol-5-ol]	A (A represents <100 nM)	< 100 nM
< 100 nM	< 100 nM	< 100 nM	< 100 nM	< 100 nM	< 100 nM	Cc1nc2c(F)c(O)c(-c3ccc4nc(N5CCC(NC6(C)CC6)C5)ccc4n3)cc2o1 (stereo in doubt) [Compound 327, 4-fluoro-2-methyl-6-{6-[(3R)-3-[(1-methylcyclopropyl)amino]pyrrolidin-1-yl]-1,5-naphthyridin-2-yl}-1,3-benzoxazol-5-ol]	B (B represents 100-1000 nM)	< 100 nM
100 to 1000 nM	100 to 1000 nM	< 100 nM	< 100 nM	< 100 nM	< 100 nM	Cc1nc2c(C)c(O)c(-c3ccc4nc(N5CC[C@H](NC(C)(C)C)C5)ccc4n3)cc2o1 [Compound 214]	A (A represents <100 nM)	100 to 1000 nM
< 100 nM	< 100 nM	< 100 nM	< 100 nM	< 100 nM	< 100 nM	Cc1nc2c(C)c(O)c(-c3ccc4nc(N5CC[C@H](NC6CC6)C5)ccc4n3)cc2o1 [Compound 216]	B (B represents 100-1000 nM)	< 100 nM
